Test results from ChEMBL document CHEMBL2057199, “Development of novel M1 antagonist scaffolds through the continued optimization of the MLPCN probe ML012” (Bioorg Med Chem Lett, 2012).
The source made the active and inactive calls. The rule behind the calls is not given here.

Experiments:
[1] = molecular target: T1, Muscarinic acetylcholine receptor M2 (Homo sapiens, UniProt P08172); assay: Antagonist activity at human muscarinic M2 receptor assessed as inhibition of acetylcholine-induced calcium mobilization; format: functional
T1 sequence (P08172 whole entry): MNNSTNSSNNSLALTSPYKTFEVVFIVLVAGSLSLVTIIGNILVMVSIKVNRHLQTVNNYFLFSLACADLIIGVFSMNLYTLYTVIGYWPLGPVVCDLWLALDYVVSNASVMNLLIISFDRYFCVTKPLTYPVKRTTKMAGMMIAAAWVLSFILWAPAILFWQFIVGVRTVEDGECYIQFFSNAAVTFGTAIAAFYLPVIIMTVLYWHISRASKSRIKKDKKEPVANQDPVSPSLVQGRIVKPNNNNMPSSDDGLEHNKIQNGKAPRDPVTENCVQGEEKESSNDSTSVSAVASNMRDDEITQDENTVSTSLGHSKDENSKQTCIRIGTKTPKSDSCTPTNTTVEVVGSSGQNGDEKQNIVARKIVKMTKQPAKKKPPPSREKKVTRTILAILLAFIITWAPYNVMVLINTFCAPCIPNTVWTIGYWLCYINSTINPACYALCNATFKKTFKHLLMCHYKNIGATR

[2] = molecular target: T2, Muscarinic acetylcholine receptor M1 (Homo sapiens) (UniProt P11229); assay: Antagonist activity at human muscarinic M1 receptor expressed in CHO cells assessed as inhibition of acetylcholine-induced calcium mobilization at 30 uM measured after 15 mins by fluorescence analysis; format: functional, cell-based; design: scale not given: the % may be the effect or the level left
T2 sequence (whole entry): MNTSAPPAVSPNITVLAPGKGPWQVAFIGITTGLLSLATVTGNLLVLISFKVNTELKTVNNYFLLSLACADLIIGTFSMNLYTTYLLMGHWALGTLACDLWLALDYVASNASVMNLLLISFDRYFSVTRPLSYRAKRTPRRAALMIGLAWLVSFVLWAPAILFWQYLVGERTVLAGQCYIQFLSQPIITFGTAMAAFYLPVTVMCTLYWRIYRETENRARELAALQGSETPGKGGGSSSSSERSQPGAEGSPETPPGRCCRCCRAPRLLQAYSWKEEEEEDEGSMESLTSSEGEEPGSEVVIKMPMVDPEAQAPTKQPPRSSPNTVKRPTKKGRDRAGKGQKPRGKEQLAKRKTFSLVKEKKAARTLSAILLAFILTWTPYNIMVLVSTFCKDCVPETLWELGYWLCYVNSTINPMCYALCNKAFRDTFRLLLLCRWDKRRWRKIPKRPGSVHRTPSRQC

[3] = molecular target: T3, Muscarinic acetylcholine receptor M5 (Homo sapiens, UniProt P08912); assay: Antagonist activity at human muscarinic M5 receptor assessed as inhibition of acetylcholine-induced calcium mobilization; format: functional
T3 sequence (P08912 whole entry): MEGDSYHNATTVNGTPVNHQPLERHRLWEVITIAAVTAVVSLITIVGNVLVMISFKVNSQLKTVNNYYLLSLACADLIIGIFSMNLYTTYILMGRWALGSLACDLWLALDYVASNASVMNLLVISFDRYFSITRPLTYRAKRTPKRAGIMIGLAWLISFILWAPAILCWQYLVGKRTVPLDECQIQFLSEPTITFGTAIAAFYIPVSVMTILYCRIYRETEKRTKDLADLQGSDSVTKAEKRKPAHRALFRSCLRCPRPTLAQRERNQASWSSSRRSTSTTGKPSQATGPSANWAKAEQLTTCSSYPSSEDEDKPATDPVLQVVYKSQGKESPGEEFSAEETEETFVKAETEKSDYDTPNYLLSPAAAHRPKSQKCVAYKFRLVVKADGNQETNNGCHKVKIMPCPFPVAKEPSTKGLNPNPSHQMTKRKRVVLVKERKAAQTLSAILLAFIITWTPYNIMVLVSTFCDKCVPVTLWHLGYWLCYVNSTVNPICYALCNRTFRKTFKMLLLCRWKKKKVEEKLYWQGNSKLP

[4] = molecular target: T4, Muscarinic acetylcholine receptor M4 (Homo sapiens, UniProt P08173); assay: Antagonist activity at human muscarinic M4 receptor assessed as inhibition of acetylcholine-induced calcium mobilization; format: functional
T4 sequence (P08173 whole entry): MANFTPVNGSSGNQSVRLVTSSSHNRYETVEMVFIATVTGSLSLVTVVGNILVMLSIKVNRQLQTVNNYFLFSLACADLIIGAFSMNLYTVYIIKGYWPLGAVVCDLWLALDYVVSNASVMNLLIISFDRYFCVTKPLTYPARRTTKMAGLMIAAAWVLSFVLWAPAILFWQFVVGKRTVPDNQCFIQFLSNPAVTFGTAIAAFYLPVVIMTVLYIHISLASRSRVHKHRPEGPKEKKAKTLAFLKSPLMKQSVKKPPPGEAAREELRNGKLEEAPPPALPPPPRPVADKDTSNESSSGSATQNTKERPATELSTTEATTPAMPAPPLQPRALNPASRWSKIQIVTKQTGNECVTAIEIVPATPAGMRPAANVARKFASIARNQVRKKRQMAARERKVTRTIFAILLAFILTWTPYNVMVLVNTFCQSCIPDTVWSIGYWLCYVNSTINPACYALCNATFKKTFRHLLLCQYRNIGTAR

[5] = molecular target: Muscarinic acetylcholine receptor M3 (Homo sapiens, UniProt P20309); assay: Antagonist activity at human muscarinic M3 receptor assessed as inhibition of acetylcholine-induced calcium mobilization; format: functional
Sequence of Muscarinic acetylcholine receptor M3 (P20309 whole entry): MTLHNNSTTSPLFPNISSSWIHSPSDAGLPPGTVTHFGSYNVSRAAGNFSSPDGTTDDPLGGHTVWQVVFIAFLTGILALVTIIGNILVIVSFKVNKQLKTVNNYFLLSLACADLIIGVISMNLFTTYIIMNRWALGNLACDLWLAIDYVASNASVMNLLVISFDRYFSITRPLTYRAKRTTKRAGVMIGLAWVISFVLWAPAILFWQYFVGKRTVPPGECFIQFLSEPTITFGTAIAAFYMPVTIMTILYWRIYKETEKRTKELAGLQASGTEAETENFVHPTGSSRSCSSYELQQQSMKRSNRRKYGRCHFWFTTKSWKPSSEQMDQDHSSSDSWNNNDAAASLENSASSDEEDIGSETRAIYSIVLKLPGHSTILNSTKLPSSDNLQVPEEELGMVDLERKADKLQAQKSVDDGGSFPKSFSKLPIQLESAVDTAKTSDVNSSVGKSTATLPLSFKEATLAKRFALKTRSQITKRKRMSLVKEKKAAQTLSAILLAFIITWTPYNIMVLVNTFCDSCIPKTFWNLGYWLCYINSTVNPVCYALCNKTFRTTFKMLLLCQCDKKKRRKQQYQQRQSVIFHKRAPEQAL

[6] = molecular target: T5, Muscarinic acetylcholine receptor M1 (Homo sapiens, UniProt P11229); assay: (§1) Antagonist activity at human muscarinic M1 receptor expressed in CHO cells assessed as inhibition of acetylcholine-induced calcium mobilization by fluorescence analysis; format: functional, cell-based
T5 sequence (P11229 whole entry): T2 sequence (whole entry)

[7] = molecular target: T2, Muscarinic acetylcholine receptor M1 (Homo sapiens); assay: Antagonist activity at human muscarinic M1 receptor assessed as rightward shift in acetylcholine concentration response curve; format: functional
[8] = molecular target: T2, Muscarinic acetylcholine receptor M1 (Homo sapiens); assay: Displacement of [3H]NMS from human muscarinic M1 receptor
[9] = molecular target: T2, Muscarinic acetylcholine receptor M1 (Homo sapiens); assay: as §1; format: functional, cell-based

Activity [2] [%] | IC50 ([6]; read-out: IC50) [µM] | also measured | SMILES
2.7 |  | IC50 [1]: > 10 µM; IC50 [3]: > 10 µM; IC50 [4]: > 10 µM; IC50 [5]: > 10 µM | O=C(C1CN(S(=O)(=O)c2cccc3cnccc23)C1)N1CCN(c2ccncc2)CC1
38.5 | > 10 |  | O=C(C1CN(S(=O)(=O)c2ccc(Cl)cn2)C1)N1CCN(c2ccncc2)CC1
3.1 | 0.11 |  | Cc1cc(N2CCN(C(=O)C3CN(S(=O)(=O)c4cccc5cnccc45)C3)CC2)ccn1
 | 0.43 |  | O=C(C1CN(S(=O)(=O)c2cccc3nonc23)C1)N1CCN(c2ccncc2)CC1
9.8 |  |  | Cc1cc2c(S(=O)(=O)N3CC(C(=O)N4CCN(c5ccncc5)CC4)C3)cccc2cn1
3.5 | 0.74 |  | O=C(C1CN(S(=O)(=O)c2cccc3c(Cl)nccc23)C1)N1CCN(c2ccncc2)CC1
14.8 |  |  | Cc1cc2c(S(=O)(=O)N3CC(C(=O)N4CC5CN(c6ccncc6)CC5C4)C3)cccc2cn1 (stereo not drawn)
4.9 | 0.37 |  | O=C(C1CN(S(=O)(=O)c2cccnc2)C1)N1CCN(c2ccncc2)CC1
8.8 |  |  | O=C(C1CN(S(=O)(=O)c2cccc3ncccc23)C1)N1CCN(c2ccncc2)CC1
10.5 | 2.3 |  | O=C(C1CN(S(=O)(=O)c2ccc3occc3c2)C1)N1CCN(c2ccncc2)CC1
47.1 | > 10 |  | O=C(C1CCN(S(=O)(=O)c2cccc3nsnc23)C1)N1CCN(c2ccncc2)CC1 (racemic)
3.6 | 0.18 |  | O=C(C1CN(S(=O)(=O)c2cccc3cnccc23)C1)N1CCN(c2ccnc(Cl)c2)CC1
3.6 | 0.13 |  | O=C(C1CN(S(=O)(=O)c2ccc3c(c2)CCO3)C1)N1CCN(c2ccncc2)CC1
12.7 | 2.5 |  | Cc1nc(C(F)(F)F)c(S(=O)(=O)N2CC(C(=O)N3CCN(c4ccncc4)CC3)C2)s1
25.8 | > 10 |  | O=C(C1CN(S(=O)(=O)c2cccc3ncccc23)C1)N1CC2CN(c3ccncc3)CC2C1 (stereo not drawn)
4.9 |  |  | Cc1cc(S(=O)(=O)N2CC(C(=O)N3CCN(c4ccncc4)CC3)C2)cnc1Cl
15.3 | 2.3 |  | Cc1noc(C)c1S(=O)(=O)N1CC(C(=O)N2CCN(c3ccncc3)CC2)C1
3.5 | 0.84 |  | O=C(C1CN(S(=O)(=O)c2cccc(Cl)c2Cl)C1)N1CCN(c2ccncc2)CC1
5.3 |  | Activity [7]: Active; Activity [8]: Active; inhibition [9]: Dose-dependent effect | O=C(C1CN(S(=O)(=O)c2ccc3c(c2)OCO3)C1)N1CCN(c2ccncc2)CC1
8 |  |  | O=C(C1CN(S(=O)(=O)c2ccc3ncccc3c2)C1)N1CCN(c2ccncc2)CC1
41.3 | > 10 |  | Cc1ccnc(S(=O)(=O)N2CC(C(=O)N3CCN(c4ccncc4)CC3)C2)c1
20.7 |  |  | O=C(C1CN(S(=O)(=O)c2cccc(Cl)c2)C1)N1CCN(c2ccncc2)CC1
12.3 | 1.2 |  | Cn1cc(S(=O)(=O)N2CC(C(=O)N3CCN(c4ccncc4)CC3)C2)cn1

Activity [2] [%] | IC50 ([6]; read-out: IC50) [µM] | also measured | SMILES
4.7 | 0.69 |  | Cc1cc(N2CCN(C(=O)C3CN(S(=O)(=O)c4cccc5cnccc45)C3)CC2)cc(C)n1
8.2 | 1.3 |  | O=C(C1CN(S(=O)(=O)c2cccnc2Cl)C1)N1CCN(c2ccncc2)CC1
6.6 |  |  | O=C(C1CN(S(=O)(=O)c2cccc(Cl)c2Cl)C1)N1CC2CN(c3ccncc3)CC2C1 (stereo not drawn)
11.4 |  |  | O=C(C1CN(S(=O)(=O)c2cccc(Cl)c2F)C1)N1CCN(c2ccncc2)CC1
40.7 | > 10 |  | O=C(C1CN(S(=O)(=O)c2ccc(C(F)(F)F)nc2)C1)N1CCN(c2ccncc2)CC1
33 | > 10 |  | O=C(C1CN(S(=O)(=O)c2ccc3cn[nH]c3c2)C1)N1CCN(c2ccncc2)CC1
9.5 | 1.7 |  | O=C(C1CN(S(=O)(=O)c2cccc(F)c2)C1)N1CCN(c2ccncc2)CC1
10.1 | 2.2 | IC50 ([6]; read-out: pIC50 (converted)): 2.09 µM | O=C(C1CN(S(=O)(=O)c2cccc3nsnc23)C1)N1CCN(c2ccncc2)CC1
7.3 | 0.51 |  | Cc1cnccc1N1CCN(C(=O)C2CN(S(=O)(=O)c3cccc4cnccc34)C2)CC1
7.3 |  |  | O=C(C1CN(S(=O)(=O)c2cccc3cnccc23)C1)N1CCN(c2ccncn2)CC1
6 | 1.6 |  | O=C(C1CN(S(=O)(=O)c2cccc3cnc(Cl)cc23)C1)N1CCN(c2ccncc2)CC1
18.9 | 3.2 |  | O=C(C1CN(S(=O)(=O)c2cccc(F)c2)C1)N1CC2CN(c3ccncc3)CC2C1 (stereo not drawn)
 |  | IC50 ([6]; cho): Not Active | O=C(C1CCN(S(=O)(=O)c2cccc3nsnc23)CC1)N1CCN(c2ccncc2)CC1
5.7 | 0.5 |  | O=C(C1CN(S(=O)(=O)c2ccc(Cl)nc2)C1)N1CCN(c2ccncc2)CC1
20.6 | > 10 |  | COc1ccc(S(=O)(=O)N2CC(C(=O)N3CCN(c4ccncc4)CC3)C2)cn1
16.2 |  |  | O=C(C1CN(S(=O)(=O)c2cccc3nsnc23)C1)N1CC2CN(c3ccncc3)CC2C1 (stereo not drawn)
12.7 |  |  | O=C(C1CN(S(=O)(=O)c2cccc3c(Cl)nc(Cl)cc23)C1)N1CCN(c2ccncc2)CC1
33.4 | > 10 |  | O=C(C1CCCN(S(=O)(=O)c2cccc3nsnc23)C1)N1CCN(c2ccncc2)CC1 (racemic)
9.9 | 1.5 |  | O=C(C1CN(S(=O)(=O)c2cccnc2Cl)C1)N1CC2CN(c3ccncc3)CC2C1 (stereo not drawn)
13.5 | 1.9 |  | O=C(C1CN(S(=O)(=O)c2cccc3c2OCO3)C1)N1CC2CN(c3ccncc3)CC2C1 (stereo not drawn)
12.6 | 2 |  | O=C(C1CN(S(=O)(=O)c2cccc3nonc23)C1)N1CC2CN(c3ccncc3)CC2C1 (stereo not drawn)
8.4 | 2.5 |  | O=C(C1CN(S(=O)(=O)c2ccccc2OC(F)(F)F)C1)N1CCN(c2ccncc2)CC1
